Starred links: 1 amine or outer side, 2 acyl side, 3 side chain; linkers in the order of their positions; H or OH if unused. Non-standard residues stand in square brackets, D forms with d. Residues, ends and D or L forms follow the SMILES beside them. *: point of attachment. Azetidine3carboxylic = O=C(C1CN([*:1])C1)[*:2]; Pyrrolidine3carbonyl(3S) = O=C([C@H]1CCNC1)*; dBta = N[C@H](Cc1csc2ccccc12)C(=O)O; Ac4c(3-oxa) = NC1(C(=O)O)COC1; X1 = N[C@H]1CCC[C@H]1C(=O)*; X2 = O=C(C12CNC[C@@H]1C2)*; dAbu = CC[C@@H](N)C(=O)O; Api = NC1(C(=O)O)CCNCC1; dAze = O=C(O)[C@H]1CCN1; Abu = CC[C@H](N)C(=O)O; X3 = NCC1(C(=O)*)CCC1; βAla = NCCC(=O)O
Assays:
GHSR-1a = GHSR-1a (Homo sapiens (Human), UniProt Q92847); assay: Agonistic activity for GHSR-1a, FLIPR calcium assay; type: cell-based; conditions: agonist activity assay, Flp In-CHO-GHSR Stable Pool cells, FLIPR calcium 6 kit; read-out: The activity (IC50) of polypeptide compounds for GHSR-1a
Chain of GHSR-1a (Q92847 whole entry): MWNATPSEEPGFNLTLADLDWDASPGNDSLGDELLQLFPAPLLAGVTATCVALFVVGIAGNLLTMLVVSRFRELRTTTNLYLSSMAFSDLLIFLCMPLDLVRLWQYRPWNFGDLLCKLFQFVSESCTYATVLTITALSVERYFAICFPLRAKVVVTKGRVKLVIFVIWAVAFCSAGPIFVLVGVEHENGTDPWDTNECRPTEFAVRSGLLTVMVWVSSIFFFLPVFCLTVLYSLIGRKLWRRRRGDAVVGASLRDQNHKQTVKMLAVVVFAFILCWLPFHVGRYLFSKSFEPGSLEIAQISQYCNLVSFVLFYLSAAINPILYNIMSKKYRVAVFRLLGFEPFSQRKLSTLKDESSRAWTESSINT
Source text: The use of recombinant expression of GHSR provides several advantages; for example, the receptor can be expressed in a determined cell system, so that it is easier to distinguish between the reactions of the compounds with GHSR and the reactions with other receptors. For example, cell lines such as HEK293, COS7 and CHO that […] can be used to express GHSR, and the same cell lines without expression vectors are used as controls.
The activity of GHSR-1a can be measured using different techniques, for example, by detecting the change in the intracellular conformation of GHSR, the change in G-protein coupling activity, and/or the change in intracellular messengers. Techniques such as measuring intracellular Ca^2+ are preferably used to measure the activity of GHSR-1a. Examples of techniques known in the art that can be used to measure Ca^2+ include the use of FLIPR® calcium ion assay kits, among others. The FLIPR® calcium ion assay kits use a calcium ion sensitive indicator and a masking dye to ensure that a researcher carries out high-sensitivity fluorescent screening for G protein-coupled receptors, ion channels and other calcium ion sensitive targets. This experiment used FLIPR calcium 6 assay kits and FLIPR calcium 6-QF assay kits.
• a) Cell line: Flp In-CHO-GHSR Stable Pool; • b) Complete medium: F12K+10% fetal bovine serum+1×penicillin-streptomycin (PS)+600 μg/mL hygromycin B; • c) Cell seeding medium: F12K+10% fetal bovine serum. • d) Assay buffer: 1× HBSS+20 mM HEPES. • e) […] component A: Assay buffer and component A were left at room temperature (RT), 10 mL of buffer was added to component A, and the mixture was vortexed for 1-2 min and stored at −20° C.
• a) Compound stock solutions: the powders from in-house synthesis were made into 10 mM stock solutions in DMSO according to the standard protocol. • b) Compound storage: all compounds in DMSO were stored in room temperature desiccators for short-term storage (at most 4 months). The remaining compounds were left at −20 ° C. for long-term storage.
• a) Flp In-CHO-GHSR Stable Pool cells were cultured in complete medium. • b) The cells were placed in […] cell seeding medium in a 384-well cell culture plate (Corning, 3764) at 7k cells/well and cultured overnight at 37° C. with 5% CO2. • c) 20× component A was thawed at room temperature, diluted with assay buffer to 2×, and left at RT. • d) The Petri dish was taken out of the incubator and equilibrated at room temperature for 10 min. The medium was changed to […]. After the final wash, 20 μL of buffer was kept in each well, 20 μL of 2× component A was then added to each well, and the plate was incubated at 37° C. for 3-5 s. • e) 10 μL of 5× compound was added to the 384-well cell culture plate, and data collection was immediately performed using FLIPR Tetra.
• 1) Z′ factor=1−3×(SDMax+SDMin)/(MeanMax−MeanMin); • 2) CVMax=(SDMax/MeanMax)×100%; • 3) CVMin=(SDMin/MeanMin)×100%; • 4) S/B=Singal/Background; • 5) Calculation formula for IC50: • Y=Bottom+(Top−Bottom)/(1+10^((LogIC50−X)×HillSlope)) • X: log value of compound concentration; Y: Activation % or Inhibition %

CYP1A2 = CYP1A2 (Homo sapiens (Human), UniProt P05177); assay: in vitro; type: in vitro ADME; conditions: microsomes, 10 min
Chain of CYP1A2 (P05177 whole entry): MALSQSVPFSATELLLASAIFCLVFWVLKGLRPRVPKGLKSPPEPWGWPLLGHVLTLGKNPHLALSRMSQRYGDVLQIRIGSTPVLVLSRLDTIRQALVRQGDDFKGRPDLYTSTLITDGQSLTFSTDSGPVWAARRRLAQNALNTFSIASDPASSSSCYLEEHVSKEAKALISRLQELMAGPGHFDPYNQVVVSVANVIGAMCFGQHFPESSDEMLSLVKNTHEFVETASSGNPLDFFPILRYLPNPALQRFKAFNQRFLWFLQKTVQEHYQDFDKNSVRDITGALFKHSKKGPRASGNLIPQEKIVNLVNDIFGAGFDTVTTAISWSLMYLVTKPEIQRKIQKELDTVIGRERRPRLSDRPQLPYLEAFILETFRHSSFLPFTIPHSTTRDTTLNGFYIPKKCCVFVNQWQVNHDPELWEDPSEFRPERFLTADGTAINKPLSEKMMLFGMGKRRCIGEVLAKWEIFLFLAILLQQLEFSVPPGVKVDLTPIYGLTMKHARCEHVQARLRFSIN
Protocol: (§1) Human liver microsomes containing cytochrome P450 (0.253 mg/mL protein) were incubated with test compounds (0.05-50 μM), CYPs substrates (10 μM […], 5 μM diclofenac, 30 μM mephenytoin, 5 μM dextromethorphan hydrobromide and 2 μM midazolam) and 1.0 mM NADP at 37° C. for 10 min. Naphthoflavone, sulfaphenazole, N-3-benzylnirvanol, quinidine and ketoconazole were used as reference inhibitors.

CYP 2C19 = CYP 2C19 (Homo sapiens (Human), UniProt P33261); type: in vitro ADME; conditions: microsomes, 10 min
Chain of CYP 2C19 (P33261 whole entry): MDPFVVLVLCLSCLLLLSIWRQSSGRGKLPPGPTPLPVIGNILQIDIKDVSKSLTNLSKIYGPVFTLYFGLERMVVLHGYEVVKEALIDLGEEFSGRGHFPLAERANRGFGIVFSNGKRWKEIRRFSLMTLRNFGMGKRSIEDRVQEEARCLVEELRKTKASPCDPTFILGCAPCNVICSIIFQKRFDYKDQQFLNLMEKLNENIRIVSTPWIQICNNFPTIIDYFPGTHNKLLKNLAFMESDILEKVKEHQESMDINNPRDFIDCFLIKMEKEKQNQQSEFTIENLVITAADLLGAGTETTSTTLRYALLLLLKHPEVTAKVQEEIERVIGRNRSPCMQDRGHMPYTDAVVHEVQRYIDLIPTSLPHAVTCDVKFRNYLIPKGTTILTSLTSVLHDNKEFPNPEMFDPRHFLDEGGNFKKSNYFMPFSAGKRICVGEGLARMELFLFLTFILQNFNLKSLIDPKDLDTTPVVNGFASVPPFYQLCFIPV
Protocol: as §1

CYP 2C9 = CYP 2C9 (Homo sapiens (Human), UniProt P11712); type: in vitro ADME; conditions: microsomes, 10 min
Chain of CYP 2C9 (P11712 whole entry): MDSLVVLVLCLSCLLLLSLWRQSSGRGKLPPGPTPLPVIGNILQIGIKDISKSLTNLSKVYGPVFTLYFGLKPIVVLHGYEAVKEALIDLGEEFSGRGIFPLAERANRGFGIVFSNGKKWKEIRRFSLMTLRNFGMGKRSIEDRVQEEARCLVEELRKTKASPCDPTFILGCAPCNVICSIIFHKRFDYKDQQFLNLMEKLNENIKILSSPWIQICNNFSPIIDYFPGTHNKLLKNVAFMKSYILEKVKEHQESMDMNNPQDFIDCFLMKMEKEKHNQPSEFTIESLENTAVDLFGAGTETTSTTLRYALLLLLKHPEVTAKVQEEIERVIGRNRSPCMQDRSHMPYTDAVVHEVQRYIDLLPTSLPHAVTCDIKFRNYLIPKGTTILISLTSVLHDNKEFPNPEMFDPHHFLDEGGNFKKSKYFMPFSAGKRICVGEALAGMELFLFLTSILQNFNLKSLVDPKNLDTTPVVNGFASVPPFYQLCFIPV
Protocol: as §1

CYP 2D6 = CYP 2D6 (Homo sapiens (Human), UniProt P10635); type: in vitro ADME; conditions: microsomes, 10 min
Chain of CYP 2D6 (P10635 whole entry): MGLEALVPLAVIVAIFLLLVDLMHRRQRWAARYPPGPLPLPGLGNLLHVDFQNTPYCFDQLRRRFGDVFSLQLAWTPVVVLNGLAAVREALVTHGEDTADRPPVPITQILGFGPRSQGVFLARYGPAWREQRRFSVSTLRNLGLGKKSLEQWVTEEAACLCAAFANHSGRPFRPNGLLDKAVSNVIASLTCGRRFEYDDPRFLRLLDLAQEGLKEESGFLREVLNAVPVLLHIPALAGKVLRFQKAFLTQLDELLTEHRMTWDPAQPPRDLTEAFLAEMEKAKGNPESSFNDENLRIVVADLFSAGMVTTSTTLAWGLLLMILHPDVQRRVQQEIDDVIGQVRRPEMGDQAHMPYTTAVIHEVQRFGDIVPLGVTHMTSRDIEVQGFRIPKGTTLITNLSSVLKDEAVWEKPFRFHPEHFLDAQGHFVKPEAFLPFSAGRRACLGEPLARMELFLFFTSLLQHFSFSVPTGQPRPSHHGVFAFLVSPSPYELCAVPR
Protocol: as §1

CYP 3A4 = CYP 3A4 (Homo sapiens (Human), UniProt P08684); type: in vitro ADME; conditions: microsomes, 10 min
Chain of CYP 3A4 (P08684 whole entry): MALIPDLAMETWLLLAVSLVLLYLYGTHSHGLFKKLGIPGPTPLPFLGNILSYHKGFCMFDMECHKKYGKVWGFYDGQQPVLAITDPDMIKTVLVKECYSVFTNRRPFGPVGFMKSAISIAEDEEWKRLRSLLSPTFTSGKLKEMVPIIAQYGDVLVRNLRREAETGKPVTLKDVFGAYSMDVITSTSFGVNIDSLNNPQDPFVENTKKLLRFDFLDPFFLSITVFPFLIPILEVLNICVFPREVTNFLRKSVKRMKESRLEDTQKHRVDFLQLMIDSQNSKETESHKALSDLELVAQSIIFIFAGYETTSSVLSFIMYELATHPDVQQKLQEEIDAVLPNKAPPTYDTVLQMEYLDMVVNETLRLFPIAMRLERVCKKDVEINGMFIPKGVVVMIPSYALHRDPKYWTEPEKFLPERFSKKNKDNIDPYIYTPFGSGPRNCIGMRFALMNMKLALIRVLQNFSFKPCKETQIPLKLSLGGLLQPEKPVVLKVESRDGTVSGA
Protocol: as §1

Row | SMILES | IC50 (GHSR-1a) | IC50 (CYP1A2) | IC50 (CYP 2C19) | IC50 (CYP 2C9) | IC50 (CYP 2D6) | IC50 (CYP 3A4)
1 | CC[C@H](N)C(=O)N[C@H](Cc1csc2ccccc12)C(=O)N[C@H](Cc1c[nH]c2ccccc12)C(=O)N[C@@H](Cc1ccccc1)C(=O)NC1(C(N)=O)CCNCC1 [Compound 3] (H-[Abu][dBta][dW]F[Api]-NH2) | 0.0172 µM | > 50 µM | > 50 µM | > 50 µM | > 50 µM | > 50 µM
2 | NCC(=O)N[C@H](Cc1csc2ccccc12)C(=O)N[C@H](Cc1c[nH]c2ccccc12)C(=O)N[C@@H](Cc1ccccc1)C(=O)NC1(C(N)=O)CCNCC1 [Compound 11] (H-G[dBta][dW]F[Api]-NH2) | 0.0203 µM | > 50 µM | > 50 µM | > 50 µM | > 50 µM | 33.4 µM
3 | C[C@@H](N)C(=O)N[C@H](Cc1csc2ccccc12)C(=O)N[C@H](Cc1c[nH]c2ccccc12)C(=O)N[C@@H](Cc1ccccc1)C(=O)NC1(C(N)=O)CCNCC1 [Compound 12] (H-[dA][dBta][dW]F[Api]-NH2) | 0.0537 µM | > 50 µM | > 50 µM | > 50 µM | > 50 µM | > 50 µM
4 | CC(C)[C@@H](N)C(=O)N[C@H](Cc1csc2ccccc12)C(=O)N[C@H](Cc1c[nH]c2ccccc12)C(=O)N[C@@H](Cc1ccccc1)C(=O)NC1(C(N)=O)CCNCC1 [Compound 13] (H-[dV][dBta][dW]F[Api]-NH2) | 0.0435 µM | > 50 µM | > 50 µM | > 50 µM | > 50 µM | > 50 µM
5 | CC(C)C[C@@H](N)C(=O)N[C@H](Cc1csc2ccccc12)C(=O)N[C@H](Cc1c[nH]c2ccccc12)C(=O)N[C@@H](Cc1ccccc1)C(=O)NC1(C(N)=O)CCNCC1 [Compound 14] (H-[dL][dBta][dW]F[Api]-NH2) | 0.0332 µM | > 50 µM | > 50 µM | > 50 µM | > 50 µM | > 50 µM
6 | NC(=O)C1(NC(=O)[C@H](Cc2ccccc2)NC(=O)[C@@H](Cc2c[nH]c3ccccc23)NC(=O)[C@@H](Cc2csc3ccccc23)NC(=O)[C@@H]2CCCN2)CCNCC1 [Compound 15] (H-P[dBta][dW]F[Api]-NH2) | 0.0023 µM | > 50 µM | > 50 µM | > 50 µM | 31.1 µM | 8.82 µM
7 | NCCC(=O)N[C@H](Cc1csc2ccccc12)C(=O)N[C@H](Cc1c[nH]c2ccccc12)C(=O)N[C@@H](Cc1ccccc1)C(=O)NC1(C(N)=O)CCNCC1 [Compound 16] (H-[βAla][dBta][dW]F[Api]-NH2) | 0.0007 µM | > 50 µM | > 50 µM | > 50 µM | 35.4 µM | 19.8 µM
8 | NC(=O)C1(NC(=O)[C@H](Cc2ccccc2)NC(=O)[C@@H](Cc2c[nH]c3ccccc23)NC(=O)[C@@H](Cc2csc3ccccc23)NC(=O)[C@@H]2CCC[C@@H]2N)CCNCC1 [Compound 21] (X1-[dBta][dW]F[Api]-NH2) | 0.023 µM | > 50 µM | > 50 µM | > 50 µM | > 50 µM | > 50 µM
9 | NCC1(C(=O)N[C@H](Cc2csc3ccccc23)C(=O)N[C@H](Cc2c[nH]c3ccccc23)C(=O)N[C@@H](Cc2ccccc2)C(=O)NC2(C(N)=O)CCNCC2)CCC1 [Compound 22] (X3-[dBta][dW]F[Api]-NH2) | 0.0023 µM | > 50 µM | > 50 µM | > 50 µM | > 50 µM | > 50 µM
10 | NC(=O)C1(NC(=O)[C@H](Cc2ccccc2)NC(=O)[C@@H](Cc2c[nH]c3ccccc23)NC(=O)[C@@H](Cc2csc3ccccc23)NC(=O)C2CNC2)CCNCC1 [Compound 23] (Azetidine3carboxylic-[dBta][dW]F[Api]-NH2) | 0.0033 µM | > 50 µM | > 50 µM | > 50 µM | > 50 µM | > 50 µM
11 | NC(=O)C1(NC(=O)[C@H](Cc2ccccc2)NC(=O)[C@@H](Cc2c[nH]c3ccccc23)NC(=O)[C@@H](Cc2csc3ccccc23)NC(=O)C2(N)COC2)CCNCC1 [Compound 24] (H-[Ac4c(3-oxa)][dBta][dW]F[Api]-NH2) | 0.0054 µM | > 50 µM | > 50 µM | > 50 µM | > 50 µM | > 50 µM
12 | NC(=O)C1(NC(=O)[C@H](Cc2ccccc2)NC(=O)[C@@H](Cc2c[nH]c3ccccc23)NC(=O)[C@@H](Cc2csc3ccccc23)NC(=O)[C@H]2CCN2)CCNCC1 [Compound 25] (H-[dAze][dBta][dW]F[Api]-NH2) | 0.0181 µM | > 50 µM | > 50 µM | > 50 µM | > 50 µM | > 50 µM
13 | NC(=O)C1(NC(=O)[C@H](Cc2ccccc2)NC(=O)[C@@H](Cc2c[nH]c3ccccc23)NC(=O)[C@@H](Cc2csc3ccccc23)NC(=O)[C@H]2CCNC2)CCNCC1 [Compound 26] ({Pyrrolidine3carbonyl(3S)}-[dBta][dW]F[Api]-NH2) | 0.0195 µM | > 50 µM | > 50 µM | > 50 µM | > 50 µM | > 50 µM
14 | NC(=O)C1(NC(=O)[C@H](Cc2ccccc2)NC(=O)[C@@H](Cc2c[nH]c3ccccc23)NC(=O)[C@@H](Cc2csc3ccccc23)NC(=O)C23CNC[C@@H]2C3)CCNCC1 (stereo partly drawn) [Compound 30] (X2-[dBta][dW]F[Api]-NH2) | 0.0134 µM | > 50 µM | > 50 µM | > 50 µM | > 50 µM | > 50 µM
15 | CC[C@@H](N)C(=O)N[C@H](Cc1csc2ccccc12)C(=O)N[C@H](Cc1c[nH]c2ccccc12)C(=O)N[C@@H](Cc1ccccc1)C(=O)N[C@H](CCCCN)C(N)=O [Compound 32] (H-[dAbu][dBta][dW]F[dK]-NH2) | 0.0024 µM | > 50 µM | > 50 µM | > 50 µM | 24.8 µM | 2.55 µM
16 | CC[C@H](N)C(=O)N[C@H](Cc1csc2ccccc12)C(=O)N[C@H](Cc1c[nH]c2ccccc12)C(=O)N[C@@H](Cc1ccccc1)C(=O)N[C@H](CCCCN)C(N)=O [Compound 33] (H-[Abu][dBta][dW]F[dK]-NH2) | 0.0031 µM | > 50 µM | > 50 µM | > 50 µM | > 50 µM | > 50 µM
17 | NCCCC[C@@H](NC(=O)[C@H](Cc1ccccc1)NC(=O)[C@@H](Cc1c[nH]c2ccccc12)NC(=O)[C@@H](Cc1csc2ccccc12)NC(=O)[C@@H]1CCCN1)C(N)=O [Compound 45] (H-P[dBta][dW]F[dK]-NH2) | 0.0051 µM | > 50 µM | > 50 µM | > 50 µM | > 50 µM | > 50 µM
18 | NCCCC[C@@H](NC(=O)[C@H](Cc1ccccc1)NC(=O)[C@@H](Cc1c[nH]c2ccccc12)NC(=O)[C@@H](Cc1csc2ccccc12)NC(=O)CCN)C(N)=O [Compound 46] (H-[βAla][dBta][dW]F[dK]-NH2) | 0.0028 µM | > 50 µM | > 50 µM | > 50 µM | > 50 µM | > 50 µM

Reference: patent US20240158438A1, “POLYPEPTIDE COMPOUND AND APPLICATION THEREOF” (CHENGDU SINTANOVO BIOTECHNOLOGY CO., LTD., priority 2021, published 2024)
